Experimental data from patent publication US20160257697A1, “THIOPHENE-SUBSTITUTED TETRACYCLIC COMPOUNDS AND METHODS OFUSE THEREOF FOR THE TREATMENT OF VIRAL DISEASES” (priority 2013, published 2016).
Where two headings read alike, the source gives them in different places.

Tests used:
Assay in all cases: microbe, parasite or virus in culture
Format in all cases: cell-based, Hepatitis C virus (HCV)
Details in all cases: Replicon Assay A
[1] = system: HCV replicon 1A
Procedure, shortened: (§1)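 Compound is added to replicon cells plated at 2000 cells/well (0.5% DMSO, 5% FBS). After 3 days the cells are washed and lysed, and HCV RNA and cyclophilin mRNA are quantified by multiplex RT-PCR against a standard curve of known replicon total RNA.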

[2] = system: HCV replicon 1AY93H
Procedure, shortened: as §1

[3] = system: HCV replicon 2B
Procedure, shortened: as §1

[4] = read-out: 1A Y93H IC50, replicon 1AY93H
[5] = read-out: 1A Y93H IC50, HCV replicon 1A Y93H
[6] = read-out: 2B IC50, HCV replicon 2B
[7] = Hepatitis C virus, HCV replicon 1A
[8] = Hepatitis C virus, read-out: 1A Y93H IC50, HCV replicon 1A Y93H
[9] = Hepatitis C virus, read-out: 2B IC50, HCV replicon 2B
[10] = Hepatitis C virus, read-out: 1A Y93H IC50 (nM), replicon 1AY93H
[11] = Hepatitis C virus, read-out: 2B IC50 (nM), replicon 2B

SMILES | IC50 ([1]; HCV replicon 1A) | IC50 [2, 5] | IC50 [3, 6] | further results
COC(=O)NC(C(=O)N1CCC[C@H]1c1ncc(-c2ccc3c(c2)cc2n3C(c3ccc(F)s3)Oc3cc(-c4cnc([C@@H]5CCCN5C(=O)[C@@H](NC(=O)OC)C(C)C)[nH]4)cc(F)c3-2)[nH]1)C1C[C@@H](C)O[C@@H](C)C1 (single isomer, unassigned) [Compound 349] |  |  |  | IC50 ([1]; replicon 1A): 0.0014 nM; IC50 [2, 4]: 0.266 nM; IC50 ([3]; read-out: 2B IC50, replicon 2B): 0.39 nM
COC(=O)N[C@H](C(=O)N1CCC[C@H]1c1ncc(-c2ccc3c(c2)OC(c2cc(C)c(C)s2)n2c-3cc3cc(-c4cnc([C@@H]5C[C@H]6C[C@H]6N5C(=O)[C@@H](NC(=O)OC)C(C)C)[nH]4)ccc32)[nH]1)C(C)C (single isomer, unassigned) [Compound 501] | 0.024 nM | 4.35 nM | 8.37 nM | 
COC(=O)N[C@H](C(=O)N1CCC[C@H]1c1ncc(-c2cc(F)c3c(c2)OC(c2cc4c(s2)CCCO4)n2c-3cc3cc(-c4cnc([C@@H]5CCCN5C(=O)[C@@H](NC(=O)OC)C5CCOC(C)(C)C5)[nH]4)ccc32)[nH]1)C(C)C (single isomer, unassigned) [Compound 412] | 0.0094 nM | 0.008 nM | 0.005 nM | 
COC(=O)N[C@H](C(=O)N1C[C@H](F)C[C@H]1c1nc(-c2ccc3c(c2)OC(c2ccc(C)s2)n2c-3cc3cc(-c4c[nH]c([C@@H]5C[C@H]6C[C@H]6N5C(=O)[C@@H](NC(=O)OC)C5CCOCC5)n4)ccc32)c[nH]1)C1CCOCC1 (single isomer, unassigned) [Compound 730] | 0.067 nM | 0.06 nM | 0.13 nM | 
COC(=O)N[C@H](C(=O)N1CCC[C@H]1c1cnc(-c2ccc3c(c2)cc2n3C(c3cc4ccccc4s3)Oc3cc(-c4cnc([C@@H]5CCCN5C(=O)[C@@H](NC(=O)OC)C5CCOCC5)[nH]4)ccc3-2)[nH]1)C1CCOCC1 (single isomer, unassigned) [Compound 811] | 0.042 nM | 0.058 nM | 0.664 nM | 
COC(=O)N[C@H](C(=O)N1CCC[C@H]1c1ncc(-c2cc(F)c3c(c2)OC(c2cccs2)n2c-3cc3cc(-c4cnc([C@@H]5CCCN5C(=O)[C@@H](NC(=O)OC)C(C)C)[nH]4)ccc32)[nH]1)C(C)C (mixture of isomers) [Compound 500] |  |  |  | IC50 [1, 7]: 0.0219 nM; IC50 [2, 8]: 0.367 nM; IC50 [3, 9]: 2.5 nM
COC(=O)NC(C(=O)N1[C@@H]2C[C@@H]2C[C@H]1c1ncc(-c2ccc3c(c2)c(F)c2n3C(c3ccc(C4CC4)s3)Oc3cc(-c4cnc([C@@H]5CCCN5C(=O)[C@@H](NC(=O)OC)C(C)C)[nH]4)ccc3-2)[nH]1)C1C[C@@H](C)O[C@@H](C)C1 (single isomer, unassigned) [Compound 643] | 0.0012 nM | 0.179 nM | 0.323 nM | 
COC(=O)N[C@H](C(=O)N1C[C@H](F)C[C@H]1c1ncc(-c2ccc3c(c2)OC(c2ccc(C4CC4)s2)n2c-3cc3cc(-c4cnc([C@@H]5C[C@@H](F)CN5C(=O)[C@@H](NC(=O)OC)C5CCOCC5)[nH]4)ccc32)[nH]1)C1CCOCC1 (mixture of isomers) [Compound 734] |  |  |  | IC50 [1, 7]: 0.42 nM; IC50 [2, 8]: 0.24 nM; IC50 [3, 9]: 116 nM
COC(=O)N[C@H](C(=O)N1CCC[C@H]1c1ncc(-c2ccc3c(c2)OC(c2cc4ccccc4s2)n2c-3cc3cc(-c4cnc([C@@H]5C[C@H]6C[C@H]6N5C(=O)[C@@H](NC(=O)OC)C(C)C)[nH]4)ccc32)[nH]1)C(C)C (single isomer, unassigned) [Compound 610] | 0.0124 nM | 0.453 nM | 0.272 nM | 
COC(=O)NC(C(=O)N1CCC[C@H]1c1ncc(-c2ccc3c(c2)cc2n3C(c3ccc(C4CC4)s3)Oc3cc(-c4cnc([C@@H]5CCCN5C(=O)[C@@H](NC(=O)OC)C(C)C)[nH]4)cc(F)c3-2)[nH]1)C1C[C@@H](C)O[C@H](C)C1 (single isomer, unassigned) [Compound 191] |  |  |  | IC50 ([1]; replicon 1A): 0.0014 nM; IC50 [2, 4]: 0.32 nM; IC50 ([3]; read-out: 2B IC50, replicon 2B): 0.89 nM
COC(=O)N[C@H](C(=O)N1CCC[C@H]1c1ncc(-c2cc(F)c3c(c2)OC(c2cc4c(s2)CCC4)n2c-3cc3cc(-c4cnc([C@@H]5CCCN5C(=O)[C@@H](NC(=O)OC)C5CCOCC5)[nH]4)ccc32)[nH]1)C(C)C (single isomer, unassigned) [Compound 621] | 0.0031 nM | 0.108 nM | 0.835 nM | 
COC(=O)N[C@H](C(=O)N1CCC[C@H]1c1ncc(-c2cc(F)c3c(c2)OC(c2scc4c2OCCO4)n2c-3cc3cc(-c4cnc([C@@H]5C[C@H](F)CN5C(=O)[C@@H](NC(=O)OC)C(C)C)[nH]4)ccc32)[nH]1)C(C)C (single isomer, unassigned) [Compound 526] |  |  |  | IC50 [1, 7]: 0.00776 nM; IC50 [2, 8]: 4.79 nM; IC50 [3, 9]: 33.3 nM
CCc1ccc(C2Oc3cc(-c4cnc([C@@H]5CCCN5C(=O)[C@@H](NC(=O)OC)C(C)C)[nH]4)ccc3-c3c(F)c4cc(-c5cnc([C@@H]6CCCN6C(=O)C(NC(=O)OC)C6C[C@@H](C)O[C@@H](C)C6)[nH]5)ccc4n32)s1 (single isomer, unassigned) [Compound 633] |  | 0.306 nM | 0.311 nM | IC50 [1, 7]: 0.0013 nM
COC(=O)N[C@H](C(=O)N1C[C@H](F)C[C@H]1c1ncc(-c2ccc3c(c2)cc2n3C(c3cc4ccccc4s3)Oc3cc(-c4cnc([C@@H]5CCCN5C(=O)[C@@H](NC(=O)OC)C5CCOCC5)[nH]4)ccc3-2)[nH]1)C(C)C (single isomer, unassigned) [Compound 624] | 0.0021 nM | 0.494 nM | 0.418 nM | 
COC(=O)NC(C(=O)N1CCC[C@H]1c1ncc(-c2ccc3c(c2)cc2n3C(c3ccc(C4CC4)s3)Oc3cc(-c4cnc([C@@H]5CCCN5C(=O)[C@@H](NC(=O)OC)C(C)C)[nH]4)cc(F)c3-2)[nH]1)C(C)(C)F (single isomer, unassigned) [Compound 76] |  |  |  | IC50 ([1]; replicon 1A): 0.0159 nM; IC50 [2, 4]: 2.55 nM; IC50 ([3]; read-out: 2B IC50, replicon 2B): 13.7 nM
COC(=O)N[C@H](C(=O)N1CCC[C@H]1c1ncc(-c2cc(F)c3c(c2)OC(c2ccc(C4CC4)s2)n2c-3cc3cc(-c4cnc([C@@H]5C[C@@H](F)CN5C(=O)[C@@H](c5ccccc5)N5CCC5)[nH]4)ccc32)[nH]1)C(C)C (mixture of isomers) [Compound 109] |  |  |  | IC50 ([1]; Hepatitis C virus, replicon 1A): 0.0058 nM; IC50 [2, 10]: 4.5 nM; IC50 [3, 11]: 24.4 nM
COC(=O)N[C@H](C(=O)N1CCC[C@H]1c1ncc(-c2ccc3c(c2)OC(c2cc4ccccc4s2)n2c-3cc3cc(-c4cnc([C@@H]5C[C@@H](F)CN5C(=O)[C@@H](NC(=O)OC)C5CCOCC5)[nH]4)ccc32)[nH]1)C1CCOCC1 (single isomer, unassigned) [Compound 812] |  | 0.44 nM | 0.15 nM | IC50 [1, 7]: 0.034 nM
COC(=O)NC(C(=O)N1CCC[C@H]1c1ncc(-c2ccc3c(c2)cc2n3C(c3ccc(C(C)C)s3)Oc3cc(-c4cnc([C@@H]5CCCN5C(=O)[C@@H](NC(=O)OC)C(C)C)[nH]4)cc(C)c3-2)[nH]1)C1C[C@@H](C)O[C@@H](C)C1 (single isomer, unassigned) [Compound 365] |  |  |  | IC50 ([1]; Hepatitis C virus, replicon 1A): 0.0027 nM; IC50 [2, 4]: 0.38 nM; IC50 ([3]; read-out: 2B IC50, replicon 2B): 0.154 nM
COC(=O)N[C@H](C(=O)N1CCC[C@H]1c1ncc(-c2cc(F)c3c(c2)OC(c2ccc(C(F)(F)F)s2)n2c-3cc3cc(-c4cnc([C@@H]5CCCN5C(=O)[C@@H](NC(=O)OC)C5CCOCC5)[nH]4)ccc32)[nH]1)C(C)C (single isomer, unassigned) [Compound 655] | 0.0016 nM | 0.278 nM | 0.24 nM | 
COC(=O)N[C@H](C(=O)N1C[C@H](F)C[C@H]1c1ncc(-c2ccc3c(c2)OC(c2ccc(C)s2)n2c-3cc3cc(-c4cnc([C@@H]5C[C@H]6C[C@H]6N5C(=O)[C@@H](NC(=O)OC)C(C)C)[nH]4)ccc32)[nH]1)C(C)C (single isomer, unassigned) [Compound 706] | 0.023 nM | 2.45 nM | 4.61 nM | 
COC(=O)NC(C(=O)N1CCC[C@H]1c1ncc(-c2ccc3c(c2)cc2n3C(c3ccc(C(C)C)s3)Oc3cc(-c4cnc([C@@H]5CCCN5C(=O)[C@@H](NC(=O)OC)C(C)C)[nH]4)cc(F)c3-2)[nH]1)C1C[C@@H](C)O[C@@H](C)C1 (single isomer, unassigned) [Compound 232] |  |  |  | IC50 ([1]; replicon 1A): 0.0027 nM; IC50 [2, 4]: 0.2 nM; IC50 ([3]; read-out: 2B IC50, replicon 2B): 0.63 nM
COC(=O)NC(C(=O)N1[C@@H]2C[C@@H]2C[C@H]1c1ncc(-c2ccc3c(c2)c(F)c2n3C(c3ccc(C4CC4)s3)Oc3cc(-c4cnc([C@@H]5CCCN5C(=O)[C@@H](NC(=O)OC)C(C)C)[nH]4)cc(F)c3-2)[nH]1)C1CCOC(C)(C)C1 (single isomer, unassigned) [Compound 423] | 0.0021 nM | 0.0042 nM | 0.0096 nM | 
COCCc1ccc(C2Oc3cc(-c4cnc([C@@H]5CCCN5C(=O)[C@@H](NC(=O)OC)C(C)C)[nH]4)cc(F)c3-c3cc4cc(-c5cnc([C@@H]6CCCN6C(=O)[C@@H](NC(=O)OC)C(C)C)[nH]5)ccc4n32)s1 (single isomer, unassigned) [Compound 81] |  |  |  | IC50 ([1]; Hepatitis C virus, replicon 1A): 0.0014 nM; IC50 [2, 10]: 0.41 nM; IC50 [3, 11]: 1.32 nM
COC(=O)NC(C(=O)N1[C@@H]2C[C@@H]2C[C@H]1c1ncc(-c2ccc3c(c2)cc2n3C(c3ccc(C4CC4)s3)Oc3cc(-c4cnc([C@@H]5CCCN5C(=O)[C@@H](NC(=O)OC)C(C)C)[nH]4)cc(F)c3-2)[nH]1)C1CCOC(C)(C)C1 (single isomer, unassigned) [Compound 278] |  |  |  | IC50 ([1]; replicon 1A): 0.0018 nM; IC50 [2, 4]: 0.161 nM; IC50 ([3]; read-out: 2B IC50, replicon 2B): 0.3 nM
COC(=O)N[C@H](C(=O)N1C2CC2C[C@H]1c1ncc(-c2cc(F)c3c(c2)OC(c2ccc(C4CC4)s2)n2c-3cc3cc(-c4cnc([C@@H]5CCCN5C(=O)[C@@H](NC(=O)OC)C5C[C@@H](C)O[C@@H](C)C5)[nH]4)ccc32)[nH]1)C(C)C (single isomer, unassigned) [Compound 556] | 0.0512 nM | 0.251 nM | 0.976 nM | 
